Like-named read-outs stand apart in the source and are kept apart here. Numbered stars: 1 amine (or outer) side, 2 acyl side, 3 side chain; on linkers, the order of the positions; unused ones are H or OH. Square brackets hold non-standard residues; d marks the D form. Peptide text beside a SMILES is read from it. * marks the point of attachment. ξ: configuration not given here. Gly(1-amidinopiperidin-4-yl) = N=C(N)N1CCC([C@H](N)C(=O)O)CC1; X1 = CC(C)c1oc([C@H](CO)N[*:1])nc1C(=O)[*:2]; Pro(3R-Ph) = O=C(O)[C@H]1NCC[C@@H]1c1ccccc1; Tic = O=C(O)[C@@H]1Cc2ccccc2CN1; Cha = N[C@@H](CC1CCCCC1)C(=O)O; ξDisc = O=C(O)C1NCc2ccccc21; Nle = CCCC[C@H](N)C(=O)O; NHBn = c1ccc(CN*)cc1
What was measured:
[1] = molecular target: DR1 (DRA1*0101 DRB1*0101) (Homo sapiens, UniProt P01903+P01911, A100R/D57E/F55L/F60I/F76Y/I96L/L162R/M171V/P40L/Q125E/R42F/V115G/Y59C); assay: Competitive binding to MHC-II protein DR1; details: Protein binding IC50 (nM) 0101, 0101
Method in brief: (§1)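 Each MHC-II allele incubated with compound 16 hours at room temperature in duplicate; controls lacked compound, or both compound and MHC-II. Complexes captured 2 h at 4 °C, bound biotinylated peptide detected via europium-streptavidin and DELFIA enhancement, time-resolved fluorescence read at ex 340/em 613 (615) nm.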

[2] = molecular target: DR4Dw14 (DRA1*0101 DRB1*0404) (Homo sapiens, UniProt P01903+P01911, A100R/A169T/F76Y/I96L/K127E/L162R/M171V/N62H/P40V/Q125Y/R42H/S133A/S149N/S66Y/V209L/W38E); assay: Competitive binding to MHC-II protein DR4Dw14; details: 0404; read-out: Protein binding IC50 (nM) 0404
Method in brief: as §1

[3] = molecular target: T1, LG2 (DR1: DRA1*0101 DRB1*0101) cells (Homo sapiens, UniProt P01903+P01911, A100R/D57E/F55L/F60I/F76Y/I96L/L162R/M171V/P40L/Q125E/R42F/V115G/Y59C); assay: Competitive binding to MHC II proteins expressed on LG2 cells; assay type: cell-based; details: Cell binding IC50 (uM) LG2 (0101), LG2 (0101)
T1 construct: MHC II Proteins Expressed on PRIESS and LG2 Cells; endogenous in cells; host or cells: LG2 cells
Method in brief: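 LG2 or Priess cells incubated 4 h at 37° C, 6% CO2 in 1% FCS with 10-fold compound dilutions (series 16 nM-1615 μM) and biotinylated-detectable indicator peptide (16 μM solution added). Lysates captured 2 h at 4° C; bound peptide detected via europium-streptavidin time-resolved fluorescence (ex 340, em 613 nm).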

[4] = Stability of compounds in rat blood plasma; assay type: in vitro ADME
Method in brief: (§2)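 Compounds at 5 μM final in rat, mouse or human plasma, incubated at 37 °C and sampled at 0, 6 and 24 h. Proteins precipitated with acetonitrile and the supernatant dried and reconstituted in 50% acetonitrile/0.1% TFA. PBS controls run for unstable compounds.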

[5] = Stability of compounds in mouse blood plasma; assay type: in vitro ADME
Method in brief: as §2

[6] = Stability of compounds in human blood plasma; assay type: in vitro ADME
Method in brief: as §2

[7] = molecular target: Cathepsin B1 (EC 3.4.22.1 from bovine spleen) (Bos taurus, UniProt P07688); details: Cathepsin B, 4 h
[8] = tested on: T-cell proliferation, DR14-LN; details: for Immunsupressive assays DR14-LN (Max) % Inhibition: maximal inhibition; for IC50: read-out: Immunsupressive assays DR14-LN (IC50)

SMILES | IC50 [1] [nM] | IC50 [2] [nM] | IC50 [3] [µM] | Stability (Arbitrary units) Rat 6 h [4] [Arbitrary units] | Stability (Arbitrary units) Rat 24 h [4] [Arbitrary units] | Stability (Arbitrary units) Mouse 6 h [5] [Arbitrary units] | Stability (Arbitrary units) Mouse 24 h [5] [Arbitrary units] | Stability (Arbitrary units) Human 6 h [6] [Arbitrary units] | Stability (Arbitrary units) Human 24 h [6] [Arbitrary units] | Stability (Arbitrary units) Cath B 4 h [7] [Arbitrary units] | Immunsupressive assays DR14-LN (Max) % Inhibition [8] [%] | IC50 [8] [nM] | Stability (Arbitrary units) Rat 24 h ([4]; rat plasma, 24 h) [Arbitrary units]
CCCC[C@H](NC(=O)[C@@H]1Cc2ccccc2CN1C(=O)[C@@H](NC(=O)[C@H](CC1CCCCC1)NC(C)=O)C1CCN(C(=N)N)CC1)C(=O)NCc1ccccc1 [Compound P68, Ac-Cha-Gpg-Tic-Nle-N(H)Bn] (Ac-[Cha][Gly(1-amidinopiperidin-4-yl)][Tic][Nle]-NHBn) | 600 | 2000 | 7.2 | 7 | 0 | 49 | 13 | 85 | 39 | 52 | 105 | 17000 | 
CCCC[C@H](NC(=O)[C@@H]1Cc2ccccc2CN1C(=O)[C@H](CCCNC(=N)N)NC(=O)[C@H](CC1CCCCC1)NC(C)=O)C(=O)N1CC[C@H](c2ccccc2)[C@H]1C(=O)N[C@@H](CO)c1nc(C(=O)N(C)C)c(C(C)C)o1 [Compound P51, Ac-Cha-Arg-Tic-Nle-βPhPro-[S(oxaz)L]-NMe2] (Ac-[Cha]R[Tic][Nle][Pro(3R-Ph)][X1]-NMe2) | 400 | 210 | 3 | 81 | 60 |  | 136 | 119 | 129 | 103 | 99 | 52000 | 
CSCC[C@H](NC(=O)C1c2ccccc2CN1C(=O)[C@@H](NC(=O)[C@H](CC1CCCCC1)NC(C)=O)C1CCN(C(=N)N)CC1)C(=O)N1CC[C@H](c2ccccc2)[C@H]1C(=O)N[C@@H](CO)c1nc(C(=O)N(C)C)c(C(C)C)o1 (stereo partly drawn) [Compound P41-1, Ac-Cha-Gpg-Disc-Met-βPhPro-[S(oxaz)L]-NMe2] (Ac-[Cha][Gly(1-amidinopiperidin-4-yl)][ξDisc]M[Pro(3R-Ph)][X1]-NMe2) | 160 | 110 | 3.8 | 91 |  | 100 | 111 | 59 | 115 | 104 | 98 | 25000 | 103

Source: patent US7629318B2, “Immunosuppressant compounds, methods and uses related thereto” (priority 2002, dated 2009)
